Read-outs that look alike come from different tables or passages of the source.
What was measured:
wild-type EP4R = wild-type EP4R (Homo sapiens, UniProt P35408); assay: cell-based
EP4R [1] = biological target: T1, EP4R (Homo sapiens, UniProt P35408); assay: biochemical; assay type: binding
T1 construct: Tango fusion cassette (only 'tango' is printed); expressed in transfected cells; host or cells: HTLA cells (tTA-dependent luciferase reporter, β-arrestin2-TEV fusion)

EP4R [2] = biological target: T1, EP4R; assay: PRESTO-Tango β-arrestin2 recruitment assay; assay type: cell-based; conditions: for antagonist activity at EP4R: concentration-response
[3] = calculated using the Cheng Prusoff equation, read-out: Arrestin-BRET Ki*
[4] = 10 µM compound vs 10 nM 3H-PGE2, read-out: % displacement of 3HPGE2 at 10 µM
[5] = calculated using the Cheng Prusoff equation, read-out: PRESTO-Tango Ki*
[6] = read-out: % displacement of 3HPGE2 at 10 µM, 10 µM compound vs 10 nM 3H-PGE2
[7] = PRESTO-Tango -logIC50, antagonist mode, EC80 of PGE2
[8] = PRESTO-Tango IC50 (nM), antagonist mode, EC80 of PGE2

Sequence of wild-type EP4R (P35408 whole entry): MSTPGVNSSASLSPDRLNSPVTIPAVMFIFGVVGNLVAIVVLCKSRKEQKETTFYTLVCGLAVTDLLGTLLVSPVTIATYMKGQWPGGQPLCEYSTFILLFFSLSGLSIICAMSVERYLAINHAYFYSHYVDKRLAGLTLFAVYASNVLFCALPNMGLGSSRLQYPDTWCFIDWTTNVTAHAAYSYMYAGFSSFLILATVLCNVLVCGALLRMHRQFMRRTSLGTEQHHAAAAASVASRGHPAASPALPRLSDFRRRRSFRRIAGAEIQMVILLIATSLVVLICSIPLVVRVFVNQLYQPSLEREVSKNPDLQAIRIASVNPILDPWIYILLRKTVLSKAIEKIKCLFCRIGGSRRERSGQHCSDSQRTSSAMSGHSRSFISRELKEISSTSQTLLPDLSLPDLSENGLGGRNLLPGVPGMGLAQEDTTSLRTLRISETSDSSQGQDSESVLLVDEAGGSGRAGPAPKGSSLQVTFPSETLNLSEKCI
T1 sequence (P35408 whole entry, the tested form may be a part): as the sequence (P35408 whole entry) above

## O=C(O)C1CCC2(CC1)CC(Nc1ncnc3sc4c(c13)CCCC4)C2 (centres unmarked) [Compound 71, OC(=O)C1CCC2(CC(C2)NC=3N=CN=C4SC=5CCCCC5C34)CC1]
wild-type EP4R
  IC50: 899 nM
  ligand efficiency: 0.35 kcal/mol per “heavy” atom
wild-type EP4R; [3]
  Ki: 180 nM
EP4R [1]; [4]
  inhibition at 10 µM: 62.9%
EP4R [2]; PRESTO-Tango IC50 (nM)
  IC50: 850 nM
EP4R [2]; [5]
  Ki: 170 nM
EP4R [2]
  antagonist activity at EP4R: dose-dependent antagonist activity

## N#Cc1ccc(OCc2cccc(C(=O)Nc3cccc(-c4nnn[nH]4)c3)c2)cc1 [Compound 70, O=C(NC=1C=CC=C(C1)C2=NN=NN2)C=3C=CC=C(COC=4C=CC(C#N)=CC4)C3]
EP4R [1]; [6]
  inhibition at 10 µM: 56.2%
EP4R [2]; PRESTO-Tango -logIC50
  IC50: 14500 nM
EP4R [2]; PRESTO-Tango IC50 (nM)
  IC50: > 10000 nM
EP4R [2]
  antagonist activity at EP4R: dose-dependent antagonist activity

## O=C(O)C1CCC2(CC1)CC(Nc1ncnc3[nH]c4ccccc4c13)C2 (centres unmarked) [Compound 73, OC(=O)C1CCC2(CC(C2)NC=3N=CN=C4NC=5C=CC=CC5C34)CC1]
wild-type EP4R
  IC50: 146 nM
  ligand efficiency: 0.40 kcal/mol per “heavy” atom
wild-type EP4R; [3]
  Ki: 29 nM
EP4R [2]; PRESTO-Tango IC50 (nM)
  IC50: 548 nM
EP4R [2]; [5]
  Ki: 110 nM

## O=C(O)C1CCC2(CC1)CC(Nc1ncnc3[nH]c4cc(F)ccc4c13)C2 (centres unmarked) [Compound 134, OC(=O)C1CCC2(CC(C2)NC=3N=CN=C4NC=5C=C(F)C=CC5C34)CC1]
wild-type EP4R
  IC50: 155 nM
  Ki: 31 nM
EP4R [2]; PRESTO-Tango IC50 (nM)
  IC50: 203 nM
EP4R [2]; PRESTO-Tango Ki* (nM)
  Ki: 41 nM

## O=C(O)C1CCC2(CC1)CC(Nc1ncnc3[nH]c4ccc(Br)cc4c13)C2 (centres unmarked) [Compound 135, OC(=O)C1CCC2(CC(C2)NC=3N=CN=C4NC=5C=CC(Br)=CC5C34)CC1]
wild-type EP4R
  IC50: 136 nM
  Ki: 27.2 nM
EP4R [2]; PRESTO-Tango IC50 (nM)
  IC50: 91.5 nM
EP4R [2]; PRESTO-Tango Ki* (nM)
  Ki: 18.3 nM

## O=C(O)C1CCC2(CC1)CC(Nc1ncnc3sc4ccccc4c13)C2 (centres unmarked) [Compound 72, OC(=O)C1CCC2(CC(C2)NC=3N=CN=C4SC=5C=CC=CC5C34)CC1]
wild-type EP4R
  IC50: 514 nM
wild-type EP4R; [3]
  Ki: 103 nM
EP4R [2]; PRESTO-Tango IC50 (nM)
  IC50: 444 nM
EP4R [2]; [5]
  Ki: 89 nM

## O=C(N[C@@H]1CC[C@@H](C(=O)O)CCC1(F)F)c1c[nH]c(-c2ccccc2)c1 [Compound 80, OC(=O)[C@@H]1CC[C@@H](NC(=O)C2=CNC(=C2)C=3C=CC=CC3)C(F)(F)CC1]
EP4R [1]
  Ki: 1380 nM
EP4R [2]; [7]
  IC50: 18600 nM
EP4R [2]; [8]
  IC50: > 10000 nM

## Cn1c2ccccc2c2c(NC3CC4(CCC(C(=O)O)CC4)C3)ncnc21 (centres unmarked) [Compound 75, CN1C=2C=CC=CC2C=3C(NC4CC5(C4)CCC(CC5)C(=O)O)=NC=NC13]
wild-type EP4R
  IC50: 813 nM
  Ki: 163 nM
  reduced potency of analog: up to 10 fold
EP4R [2]; PRESTO-Tango IC50 (nM)
  IC50: 607 nM
EP4R [2]; PRESTO-Tango Ki* (nM)
  Ki: 121 nM

## CN1C(=O)C(=Cc2cccc(OCC(=O)O)c2)c2cc(Br)cnc21 [Compound 62, CN1C(=O)C(=CC=2C=CC=C(OCC(=O)O)C2)C=3C=C(Br)C=NC13]
EP4R [1]; [6]
  inhibition at 10 µM: 17.2%
EP4R [2]; [7]
  IC50: 3470 nM
EP4R [2]; [8]
  IC50: 3510 nM
EP4R [2]; PRESTO-Tango Ki* (nM)
  Ki: 702 nM
EP4R [2]
  antagonist activity at EP4R: dose-dependent antagonist activity

## O=C(NC1CCCC(C(=O)O)CC1)c1csc(C2CCCCC2)c1 (centres unmarked) [Compound 66, OC(=O)C1CCCC(CC1)NC(=O)C2=CSC(=C2)C3CCCCC3]
wild-type EP4R
  IC50: 4050 nM
wild-type EP4R; [3]
  Ki: 810 nM
EP4R [1]; [4]
  inhibition at 10 µM: 25.6%
EP4R [2]; PRESTO-Tango -logIC50
  IC50: 3720 nM
EP4R [2]; PRESTO-Tango IC50 (nM)
  IC50: 3760 nM
EP4R [2]; [5]
  Ki: 752 nM
EP4R [2]
  antagonist activity at EP4R: dose-dependent antagonist activity

## CC(C(=O)Nc1cc(C#N)ccc1CCCC(=O)O)c1ccc(F)c2ccccc12 (centres unmarked) [ONO-AE3-208, reference compound]
wild-type EP4R; [3]
  Ki: 1.3 nM

## O=C(O)CC1CN(C(=O)[C@@H]2C[C@]23CCOc2ccccc23)c2ccccc21 (some centres unmarked) [Compound 65, OC(=O)CC1CN(C(=O)[C@@H]2C[C@@]32CCOC=4C=CC=CC43)C=5C=CC=CC15]
EP4R [1]; read-out: 3H-PGE2 Displacement by 10 µM of docking hits (Displacment), 10 µM compound, individual replicate values (Figure 1B source data)
  inhibition at 10 µM: 23.4%
EP4R [1]; [6]
  inhibition at 10 µM: 24%
EP4R [2]; [8]
  IC50: 5160 nM
EP4R [2]; PRESTO-Tango Ki* (nM), calculated using the Cheng Prusoff equation
  Ki: 1030 nM
EP4R [2]
  antagonist activity at EP4R: dose-dependent antagonist activity

## O=C(O)Cc1ccc(NC(=O)c2cc(C3CC3)nc3ccc(F)cc23)cc1 [Compound 68, OC(=O)CC=1C=CC(NC(=O)C=2C=C(N=C3C=CC(F)=CC23)C4CC4)=CC1]
EP4R [1]; [6]
  inhibition at 10 µM: 31.8%
EP4R [2]; [7]
  IC50: 11000 nM
EP4R [2]; [8]
  IC50: > 10000 nM
EP4R [2]
  antagonist activity at EP4R: dose-dependent antagonist activity

## Cc1cc(C(=O)NC2CCCC(C(=O)O)CC2)c(C)n1-c1ccc2c(c1)OCCO2 (centres unmarked) [Compound 81, CC1=CC(C(=O)NC2CCCC(CC2)C(=O)O)=C(C)N1C=3C=CC=4OCCOC4C3]
EP4R [1]
  Ki: 1170 nM
EP4R [2]; [7]
  IC50: 35500 nM
EP4R [2]; [8]
  IC50: > 10000 nM

## Cc1ccc(-n2nc(C(=O)Nc3ccc(CC(=O)O)cc3)c3c2CCC3)cc1 [Compound 64, CC=1C=CC(=CC1)N2N=C(C(=O)NC=3C=CC(CC(=O)O)=CC3)C=4CCCC42]
EP4R [1]; [6]
  inhibition at 10 µM: 20%

## CC(CN(Cc1ccccc1)C(=O)COc1ccc(Cl)c2cccnc12)C(=O)O (centres unmarked) [Compound 35, CC(CN(CC=1C=CC=CC1)C(=O)COC=2C=CC(Cl)=C3C=CC=NC23)C(=O)O]
EP4R [1]; [6]
  inhibition at 10 µM: -5.8%

## CN(C(=O)CSc1nnc(S)s1)c1ccc2ccccc2c1 [Compound 36, CN(C(=O)CSC1=NN=C(S)S1)C=2C=CC=3C=CC=CC3C2]
EP4R [1]; [6]
  inhibition at 10 µM: -5.8%

## O=C(O)c1c[nH]c2c(Cl)cc(-c3ccc4ccccc4c3F)cc2c1=O [Compound 12, OC(=O)C1=CNC=2C(Cl)=CC(=CC2C1=O)C=3C=CC=4C=CC=CC4C3F]
EP4R [1]; [6]
  inhibition at 10 µM: -17.1%

## CC(C)(Oc1ccc(F)cc1)C(=O)N1CC(CC(=O)O)c2ccccc21 (centres unmarked) [Compound 60, CC(C)(OC=1C=CC(F)=CC1)C(=O)N2CC(CC(=O)O)C=3C=CC=CC23]
EP4R [1]; [6]
  inhibition at 10 µM: 13.8%

## COc1ccccc1CN(Cc1cccs1)C(=O)Cc1cccc(C(=O)O)c1 [Compound 52, COC=1C=CC=CC1CN(CC2=CC=CS2)C(=O)CC=3C=CC=C(C3)C(=O)O]
EP4R [1]; [6]
  inhibition at 10 µM: 1.2%

## O=C(O)C1CC2(CC(NS(=O)(=O)C=Cc3ccc(F)cc3)CCS2)C1 (centres unmarked) [Compound 57, OC(=O)C1CC2(C1)CC(CCS2)NS(=O)(=O)C=CC=3C=CC(F)=CC3]
EP4R [1]; [6]
  inhibition at 10 µM: 9%

## COC(C(=O)N(C1CC1)C(C)C(=O)O)c1cnn(C)c1 (centres unmarked) [Compound 25, COC(C(=O)N(C(C)C(=O)O)C1CC1)C=2C=NN(C)C2]
EP4R [1]; [6]
  inhibition at 10 µM: -10.6%

## O=C(O)CSc1nc2cc(Cl)ccc2n1Cc1ccccc1 [Compound 39, OC(=O)CSC1=NC=2C=C(Cl)C=CC2N1CC=3C=CC=CC3]
EP4R [1]; [6]
  inhibition at 10 µM: -4.9%

## O=C(O)Cc1ccc(C=C2C(=O)N3CCCc4cccc2c43)cc1 [Compound 42, OC(=O)CC=1C=CC(C=C2C(=O)N3CCCC=4C=CC=C2C34)=CC1]
EP4R [1]; [6]
  inhibition at 10 µM: -3.2%

## O=C(NC1CCCC1C(=O)O)C(Sc1ccc(F)cc1)c1ccccc1 (centres unmarked) [Compound 28, OC(=O)C1CCCC1NC(=O)C(SC=2C=CC(F)=CC2)C=3C=CC=CC3]
EP4R [1]; [6]
  inhibition at 10 µM: -10.3%

## O=C(O)CCC(Cc1ccccc1)NS(=O)(=O)C=Cc1ccccc1Cl (centres unmarked) [Compound 55, OC(=O)CCC(CC=1C=CC=CC1)NS(=O)(=O)C=CC=2C=CC=CC2Cl]
EP4R [1]; [6]
  inhibition at 10 µM: 7.6%

## O=C(O)c1cc(NS(=O)(=O)c2ccc(Br)cc2F)ccc1O [Compound 53, OC(=O)C=1C=C(NS(=O)(=O)C=2C=CC(Br)=CC2F)C=CC1O]
EP4R [1]; [6]
  inhibition at 10 µM: 2.8%

Reference: publication PMC10700596 (Nature Communications, 2023)
